Assay results from US7932283B2, “Fungicide N-cyclopropyl-sulfonylamide derivatives” (Bayer Cropscience AG, priority 2006, dated 2011).

Key:
[1] = test system: Mycosphaerella graminicola; assay: In vivo test on Mycosphaerella graminicola (wheat leaf spot); conditions: Zymoseptoria tritici, wheat plants (Scipion variety), grading 21 to 28 days after contamination, good (at least 70%) or total protection, read-out: protection (% of efficacy)
Experimental: In vivo Test on Mycosphaerella graminicola (Wheat Leaf Spot)
The active ingredients tested are prepared by homogenisation in a mixture of acetone/tween/DMSO, and then diluted with water to obtain the desired active material concentration.
Wheat plants (Scipion variety), sown on a 50/50 peat soil-pozzolana substrate in starter cups and grown at 12° C., are treated at the 1-leaf stage (10 cm tall) by spraying with the active ingredient prepared as described above.
Plants, used as controls, are treated with the mixture of acetone/tween/DMSO/water not containing the active material.
After 24 hours, the plants are contaminated by spraying them with an aqueous suspension of Mycosphaerella graminicola spores (500 000 spores per ml). The spores are collected from a 7-day-old culture. The contaminated wheat plants are incubated for 72 hours at 18° C. and at 100% relative humidity, and then for 21 to 28 days at 90% relative humidity.
Grading (% of efficacy) is carried out 21 to 28 days after the contamination, in comparison with the control plants.

[2] = logP by HPLC on reversed-phase column (C 18), EEC Directive 79/B31 Annex V.A8, methods A and B; assay type: physicochemical; conditions: reversed-phase HPLC column (C 18), linear gradient 10% to 90% acetonitrile
Experimental: Calibration was carried out using unbranched alkan-2-ones (having 3 to 16 carbon atoms) with known logP values (determination of the logP values by the retention times using linear interpolation between two successive alkanones).

Puccinia recondita = assay: In vivo test on Puccinia recondita f. sp. tritici (wheat brown rust); conditions: 240 h, wheat plants (Scipion variety), grading 10 days after contamination, good (at least 70%) or total protection
Experimental: In vivo Test on Puccinia reconditef. Sp. tritici (Wheat Brown Rust)
The active ingredients tested are prepared by homogenisation in a mixture of acetone/tween/DMSO, then diluted with water to obtain the desired active material concentration. Wheat plants (Scipion variety) in starter cups, sown on 50/50 peat soil-pozzolana substrate and grown at 12° C., are treated at the 1-leaf stage (10 cm tall) by spraying with the active ingredient prepared as described above. Plants, used as controls, are treated with the mixture of acetone/tween/DMSO/water not containing the active material.
After 24 hours, the plants are contaminated by spraying the leaves with an aqueous suspension of Puccinia recondita spores (100,000 spores per ml). The spores are collected from a 10-day-old contaminated wheat and are suspended in water containing 2.5 ml/of tween 80 10%. The contaminated wheat plants are incubated for 24 hours at 20° C. and at 100% relative humidity, and then for 10 days at 20° C. and at 70% relative humidity. Grading is carried out 10 days after the contamination, in comparison with the control plants.

[3] = LogP method B: HPLC reversed-phase C 18, 40° C., 0.1% aqueous formic acid / acetonitrile
[4] = HPLC reversed-phase C 18, method B: 40° C., 0.1% aqueous formic acid and acetonitrile
[5] = LogP method A: HPLC reversed-phase C 18, 43° C., 0.1% aqueous phosphoric acid / acetonitrile
[6] = HPLC reversed-phase C 18, method A: 43° C., 0.1% aqueous phosphoric acid, acetonitrile

SMILES | chromatographic logP [2, 3] | pest or weed control at 500 ppm (Puccinia recondita) [%] | further results
CCOc1nn(C)cc1C(=O)N(C1CC1)S(=O)(=O)c1ccc(Oc2ccc(O)cc2)cc1O [Compound 535] | 4 |  | pest or weed control at 500 ppm [1]: ≥ 70%
CCCOc1nn(C)cc1C(=O)N(C1CC1)S(=O)(=O)c1ccc(Oc2ccccc2)cc1 [Compound 281] |  | ≥ 70 | 
CCCCOc1ccc(S(=O)(=O)N(C(=O)c2cn(C)nc2OCCC)C2CC2)cc1 [Compound 309] |  | ≥ 70 | 
Cc1nc(C(=O)N(C2CC2)S(=O)(=O)c2ccc(Oc3ccccc3)cc2)c(C)o1 [Compound 45] |  |  | pest or weed control at 500 ppm [1]: ≥ 70%
CCc1nn(C)c(F)c1C(=O)N(C1CC1)S(=O)(=O)c1ccc(Oc2cccc(C)c2)cc1 [Compound 578] |  |  | pest or weed control at 500 ppm [1]: ≥ 70%
CCOc1nn(C)cc1C(=O)N(C1CC1)S(=O)(=O)c1ccc(OC2=CC(OC(F)(F)F)=CCC2)c(O)c1 [Compound 554] | 4.5 | ≥ 70 | 
Cn1nc(C(F)(F)F)c(C(=O)N(C2CC2)S(=O)(=O)c2ccc(F)c(F)c2F)c1F [Compound 366] |  | ≥ 70 | 
COc1nn(C)cc1C(=O)N(C1CC1)S(=O)(=O)c1ccc(Oc2cccc(N(C)C)c2)c(Cl)c1 [Compound 502] |  | ≥ 70 | pest or weed control at 500 ppm [1]: ≥ 70%
CCOc1nn(C)cc1C(=O)N(C1CC1)S(=O)(=O)C1C=CC(OC2=CC=C(C(F)(F)F)CC2)=CC1O (stereo not shown) [Compound 538] | 4.1 |  | pest or weed control at 500 ppm [1]: ≥ 70%
CCCOc1nn(C)cc1C(=O)N(C1CC1)S(=O)(=O)c1ccc(Oc2ccc(C(F)(F)F)cc2)cc1 [Compound 320] |  | ≥ 70 | 
CCc1nn(C)c(F)c1C(=O)N(C1CC1)S(=O)(=O)c1ccc(F)cc1Br [Compound 380] |  | ≥ 70 | chromatographic logP [2, 4]: 2.9
CCOc1nn(C)cc1C(=O)N(C1CC1)S(=O)(=O)c1ccc(Oc2ccc(Br)c(O)c2)c(Cl)c1 [Compound 558] | 4.9 | ≥ 70 | 
CCOc1nn(C)cc1C(=O)N(C1CC1C)S(=O)(=O)c1ccc(Oc2ccccc2)cc1 (stereo not shown) [Compound 675] |  |  | pest or weed control at 500 ppm [1]: ≥ 70%
CCOc1nn(C)cc1C(=O)N(C1CC1)S(=O)(=O)c1ccc(Oc2ccc(Cl)c(Cl)c2)c(Cl)c1 [Compound 557] | 4.8 | ≥ 70 | 
Cc1cccc(Oc2ccc(S(=O)(=O)N(C(=O)c3c(C)nn(C)c3F)C3CC3)cc2)c1 [Compound 583] |  |  | pest or weed control at 500 ppm [1]: ≥ 70%
CCCOc1nn(C)cc1C(=O)N(C1CC1)S(=O)(=O)c1ccc(Oc2ccc(Br)cc2)cc1 [Compound 328] |  | ≥ 70 | 
COc1nn(C)cc1C(=O)N(C1CC1)S(=O)(=O)c1ccc(Oc2ccc(Cl)c(Cl)c2)c(Cl)c1 [Compound 513] |  | ≥ 70 | 
CCOc1nn(C)cc1C(=O)N(C1CC1)S(=O)(=O)c1ccc(Oc2ccccc2)c(O)c1 [Compound 533] | 3.9 | ≥ 70 | 
CCOc1nn(C)cc1C(=O)N(C1CC1)S(=O)(=O)c1ccc(Oc2cccc(Br)c2)c(O)c1 [Compound 551] | 4.5 | ≥ 70 | 
CCCOc1nn(C)cc1C(=O)N(C1CC1)S(=O)(=O)c1ccc(Oc2cccc(C(F)(F)F)c2)cc1 [Compound 318] |  | ≥ 70 | 
CCc1nn(C)c(F)c1C(=O)N(C1CC1)S(=O)(=O)c1cnc(O)c(Br)c1 [Compound 448] | 3.5 | ≥ 70 | 
CCOc1nn(C)cc1C(=O)N(C1CC1)S(=O)(=O)c1ccc(Oc2ccc(F)c(O)c2)c(O)c1 [Compound 548] | 4.4 | ≥ 70 | 
Cn1nc(C(F)(F)F)c(C(=O)N(C2CC2)S(=O)(=O)c2cccc(Cl)c2F)c1F [Compound 358] |  |  | pest or weed control at 500 ppm [1]: ≥ 70%; chromatographic logP [2, 4]: 3.2
COc1nn(C)cc1C(=O)N(C1CC1)S(=O)(=O)c1ccc(Oc2cccc(C(F)(F)F)c2F)cc1Cl [Compound 519] |  |  | pest or weed control at 500 ppm [1]: ≥ 70%
CCOc1nn(C)cc1C(=O)N(C1CC1)S(=O)(=O)c1ccc(Oc2ccccc2)cc1O [Compound 530] | 3.6 |  | pest or weed control at 500 ppm [1]: ≥ 70%
CCc1nn(C)c(F)c1C(=O)N(C1CC1)S(=O)(=O)c1ccccc1C(F)(F)F [Compound 377] |  |  | pest or weed control at 500 ppm [1]: ≥ 70%; chromatographic logP [2, 4]: 2.9
CCOc1nn(C)cc1C(=O)N(C1CC1)S(=O)(=O)c1ccc(Oc2ccc(O)cc2O)c(O)c1 [Compound 555] | 4.7 | ≥ 70 | 

SMILES | chromatographic logP [2, 3] | pest or weed control at 500 ppm (Puccinia recondita) [%] | further results
COc1nn(C)cc1C(=O)N(C1CC1)S(=O)(=O)c1ccc(Oc2cccc(C(F)(F)F)c2)cc1Cl [Compound 508] |  |  | pest or weed control at 500 ppm [1]: ≥ 70%
Cn1cc(C(=O)N(C2CC2)S(=O)(=O)c2ccc(Oc3ccccc3)cc2)c(C(F)F)n1 [Compound 249] |  |  | pest or weed control at 500 ppm [1]: ≥ 70%
CCOc1nn(C)cc1C(=O)N(C1CC1)S(=O)(=O)c1ccc(Oc2ccc(O)cc2)c(O)c1 [Compound 545] | 4.3 | ≥ 70 | 
CC(C)c1c(C(=O)N(C2CC2)S(=O)(=O)c2ccc(C(F)(F)F)cc2)sc(=O)n1C1CC1 [Compound 618] |  |  | chromatographic logP [2, 5]: 4.03
Cc1nocc1C(=O)N(C1CC1)S(=O)(=O)c1ccc(Oc2ccccc2)cc1 [Compound 601] | 3.7 |  | 
COc1nn(C)cc1C(=O)N(C1CC1)S(=O)(=O)c1ccc(Oc2ccc(C)cc2)cc1Br [Compound 467] | 3.7 |  | 
Cc1cnn(C)c1C(=O)N(C1CC1)S(=O)(=O)c1ccc(Oc2ccccc2)cc1 [Compound 660] | 3.6 |  | 
Cc1nn(C)c(C)c1C(=O)N(C1CC1)S(=O)(=O)c1ccc(C(C)(C)C)cc1 [Compound 414] |  |  | chromatographic logP [2, 5]: 3.41
O=C(c1ccsc1I)N(C1CC1)S(=O)(=O)c1cccc(O)c1O [Compound 19] |  |  | chromatographic logP [2, 4]: 3.8
CCc1onc(C(C)C)c1C(=O)N(C1CC1)S(=O)(=O)c1cccc(O)c1 [Compound 589] |  |  | chromatographic logP [2, 5]: 4.18
Cc1n[nH]c(C)c1C(=O)N(C1CC1)S(=O)(=O)c1cccc(Cl)c1 [Compound 401] |  |  | chromatographic logP [2, 5]: 2.45
CCc1nn(C)c(F)c1C(=O)N(C1CC1)S(=O)(=O)c1ccc(Oc2ccc(C(F)(F)F)cc2)cc1 [Compound 389] |  |  | chromatographic logP [2, 4]: 4.3
Cc1nn(C)c(O)c1C(=O)N(C1CC1)S(=O)(=O)c1ccccc1O [Compound 199] |  |  | chromatographic logP [2, 6]: 2.58
COc1ccc(Oc2ccc(S(=O)(=O)N(C(=O)c3cn(C)nc3OC)C3CC3)c(Br)c2)cc1OC [Compound 462] | 2.9 |  | 
CCc1c(C(=O)N(C2CC2)S(=O)(=O)c2ccc(O)c(O)c2)sc(=O)n1C1CC1 [Compound 630] |  |  | chromatographic logP [2, 5]: 4.08
Cc1occc1C(=O)N(C1CC1)S(=O)(=O)c1cccc(O)c1 [Compound 3] |  |  | chromatographic logP [2, 6]: 3.27
Cc1nn(C)c(Oc2cccc(Cl)c2)c1C(=O)N(C1CC1)S(=O)(=O)c1ccc(O)c(C(F)(F)F)c1 [Compound 404] |  |  | chromatographic logP [2, 5]: 4.56
CC(C)c1c(C(=O)N(C2CC2)S(=O)(=O)c2ccc(O)c(O)c2)sc(=O)n1C1CC1 [Compound 634] |  |  | chromatographic logP [2, 5]: 3.01
O=C(c1ccsc1I)N(C1CC1)S(=O)(=O)c1ccc(Oc2ccc(Br)cc2)cc1 [Compound 22] |  |  | chromatographic logP [2, 4]: 4.9
CC/C=N/N(C)/C(F)=C/C(=O)N(C1CC1)S(=O)(=O)c1csc(O)c1O [Compound 438] | 4 |  | pest or weed control at 500 ppm [1]: ≥ 70%
Cc1nn(C)c(F)c1C(=O)N(C1CC1)S(=O)(=O)c1ccccc1-c1ccccc1 [Compound 206] |  |  | chromatographic logP [2, 6]: 2.96
CC(C)c1c(C(=O)N(C2CC2)S(=O)(=O)c2cccc(O)c2)sc(=O)n1C1CC1 [Compound 617] |  |  | chromatographic logP [2, 5]: 2.01
COc1nn(C)cc1C(=O)N(C1CC1)S(=O)(=O)c1ccc(Oc2ccccc2)cc1Br [Compound 464] | 3.3 |  | 
Cc1nc(C(=O)N(C2CC2)S(=O)(=O)c2ccc(O)cc2O)cs1 [Compound 71] |  |  | chromatographic logP [2, 6]: 3.03
COc1nn(C)cc1C(=O)N(C1CC1)S(=O)(=O)c1ccc(Oc2cc(O)cc(O)c2)cc1Br [Compound 481] | 4.3 |  | 
CC(C)c1nn(C)c(F)c1C(=O)N(C1CC1)S(=O)(=O)c1ccc(C(F)(F)F)cc1O [Compound 97] |  |  | chromatographic logP [2, 4]: 4
